Data as given in patent US6472385B1, “Compositions and methods to enhance cancer chemotherapy in p53 defective tumors” (priority 1999, dated 2002).

Experiments:
[1] = system: DNA damage-induced cell cycle arrest; assay: Cell cycle analysis: abrogation of DNA damage-induced cell cycle arrest; assay type: cell-based; conditions: for G2 arrest caused by the compound itself: compound alone / at concentrations capable of abrogating arrest
Protocol: Experiments of cell cycle analysis were conducted in accordance with procedures described by […] et al. Cell Growth and Differ. 1994 5:983-993; Bunch, R. T. and Eastman, A. […] T. and Eastman, A. Cell Growth and Differ. 1997 8:779-788.

[2] = system: DNA damage-induced cell cycle arrest; assay: Cell cycle arrest abrogation in the presence of human plasma / plasma proteins; assay type: cell-based; conditions: human plasma / human plasma proteins added
Protocol: However, in K252a the hexose. moiety is replaced with a pentose moiety. […] It is believed that the pentose ring of this structure prevents binding of this compound to human plasma proteins.
Experiments of cell cycle analysis were conducted in accordance with procedures described by Demarcq et al. Cell Growth and Differ. 1994 5:983-993; Bunch, R. T. and Eastman, A. Clinical Cancer Research 1996 2:791-7; and Bunch, R. T. and Eastman, A. Cell Growth and Differ. 1997 8:779-788.

[3] = system: p53 defective human breast cancer cells lines, MDA-MD-231 and T47D; assay: Selectivity of arrest abrogation for p53 defective cell lines; assay type: cell-based
Protocol: The breast cancer cell lines were obtained from the American Type Culture Collection (Rockville, Md.). The cells were maintained in Dulbecco's modified Eagle's Medium supplemented with 10% fetal bovine serum, penicillin (100 units/ml), streptomycin (100 μg/ml) and fungizone (0.25 μg/ml).

[4] = system: human prostate carcinoma cells; conditions: cited from earlier work
[5] = system: G2 checkpoint activated by DNA damage; conditions: literature; UCN-01: noncytotoxic doses, cisplatin; cited from earlier work
[6] = system: Chinese hamster ovary cells; conditions: Chinese hamster ovary cells incubated with cisplatin; cited from earlier work
human cells = conditions: cited from earlier work

Structure (SMILES): COC(=O)[C@@]1(O)CC2O[C@]1(C)n1c3ccccc3c3c4c(c5c6ccccc6n2c5c31)C(=O)NC4=O [ICP1]
- G2 arrest caused by the compound itself [1]: does not cause G2 arrest
- abrogation of cell cycle arrest ([1]; non-toxic concentrations): abrogates cell cycle arrest at non-toxic concentrations
- activity (abrogation of cell cycle arrest) in the presence of human plasma [2]: maintain its ability to abrogate cell cycle arrest
- selectivity of abrogation of cell arrest for p53 defective cell lines [3]: selective for p53 defective cell lines

Structure (SMILES): COC(=O)[C@@]1(O)CC2O[C@]1(C)n1c3ccccc3c3c4c(c5c6ccccc6n2c5c31)C(=O)NC4 [K252a]
- abrogation of cell cycle arrest in the G2 phase ([1]; G2 phase): does not abrogate cell cycle arrest in the G2 phase
- abrogation of cell cycle arrest in the S phase ([1]; S phase): only abrogates cell cycle arrest in the S phase
- G2 arrest caused by the compound itself [1]: causes G2 arrest
- activity (abrogation of cell cycle arrest) in the presence of human plasma [2]: not inhibited
- inhibition of growth of human prostate carcinoma cells [4]: inhibit the growth

Structure (SMILES): CN[C@@H]1C[C@H]2O[C@@](C)([C@@H]1OC)n1c3ccccc3c3c4c(c5c6ccccc6n2c5c31)C(=O)N[C@H]4O [UCN-01, 7-hydroxystaurosporine]
- abrogation of G2 checkpoint / G2 arrest after DNA damage [5]: abrogate the G2 arrest
- abrogation of S-phase arrest [6]: abrogates this S-phase arrest
- abrogation of S phase arrest (human cells): Abrogation of S phase arrest has also been observed

Structure (SMILES): COC[C@@H]([C@H](O)[C@H](O)C(=O)NCC[C@H](C)c1nc(/C=C/C[C@@H]2O[C@]3(C[C@@H](O)[C@@H]2C)O[C@H]([C@H](C[C@H](O)[C@H](C)[C@H](O)[C@H](C)/C=C(C)/C(C)=C/C=C/C(C)=C\C#N)OC)[C@H](OP(=O)(O)O)C3(C)C)co1)N(C)C [calyculin A]
- abrogation of G2 checkpoint / G2 arrest after DNA damage [5]: abrogate the G2 checkpoint

Structure (SMILES): C[C@@](O)(/C=C/[C@H]1CC=CC(=O)O1)[C@@H](C[C@@H](O)\C=C/C=C\C=C\CO)OP(=O)(O)O [fostriecin]
- abrogation of G2 checkpoint / G2 arrest after DNA damage [5]: abrogate the G2 checkpoint

Structure (SMILES): C=C1[C@@H](O)[C@@H]2O[C@]3(CC[C@H](/C=C/[C@@H](C)[C@@H]4CC(C)=C[C@@]5(O[C@H](C[C@@](C)(O)C(=O)O)CC[C@H]5O)O4)O3)CC[C@H]2O[C@@H]1[C@@H](O)C[C@H](C)[C@H]1O[C@@]2(CCCCO2)CC[C@H]1C [okadaic acid]
- abrogation of G2 checkpoint / G2 arrest after DNA damage [5]: abrogate the G2 checkpoint

Structure (SMILES): CC(=O)CCCCn1c(=O)c2c(ncn2C)n(C)c1=O [pentoxifylline]
- abrogation of G2 checkpoint / G2 arrest after DNA damage [5]: abrogate the G2 checkpoint

Structure (SMILES): CN[C@@H]1C[C@H]2O[C@@](C)([C@@H]1OC)n1c3ccccc3c3c4c(c5c6ccccc6n2c5c31)C(=O)NC4 [staurosporine]
- abrogation of G2 checkpoint / G2 arrest after DNA damage [5]: abrogate the G2 checkpoint
